Measurements from patent US9782387B2, “Compositions and methods for treating hematological malignancies” (Tel HaShomer Medical Research Infrastructure and Services …, priority 2013, dated 2017).

Tests used:
[1] = system: MM.1S cells; test: Combination XTT assay, Chou-Talalay, MM.1S; assay type: cell-based, human; design: key: CI <1 synergism, =1 additive, >1 antagonism (Chou-Talalay); conditions: 48 h
Experimental: (§1) Combinations of novel and/or conventional anti-MM agents may achieve higher clinical response rates than a single agent(s).
(§2) CI value <1, =1, >1 indicates synergism, additive effect, and antagonism, respectively, (n=3 independent experiments). The CI values were calculated by the Chou-Talalay method based on the median-effect equation and the classic isobologram equation [22], using compusyn computer software.

[2] = system: RPMIS cells; test: Combination XTT assay, Chou-Talalay, RPMIS; assay type: cell-based, human; design: key: CI <1 synergism, =1 additive, >1 antagonism (Chou-Talalay); conditions: 48 h
Experimental: as §1, §2

[3] = system: human multiple myeloma (MM) cell lines; test: Cell viability XTT assay, MM cell lines; assay type: cell-based; conditions: each MM cell line
Experimental: The following panel of human multiple myeloma (MM) cell lines was used: RPMI-S (ATCC® CCL-155), RPMI-LR5, RPMI-MR20, MM.1S (ATCC® CRL-2974). OPM1, OPM-2, U266 ATCC® TIB-196 and CAG. The human immortalized bone marrow stromal cell (BMSC) line HS-5 was obtained from ATCC® CRL-11882. MM cell lines were grown in RPMI and HS-5 in DMEM, supplemented with 10% fetal calf serum, 2 mM L-glutamine, 100 units/mL penicillin and 100 μg/mL streptomycin (Biological Industries, Beit Haemek, Israel), and incubated in a humidified atmosphere of 5% CO2 and 95% air at 37° C.
MM cell lines were plated at a density of 2×10^4 cells per well in 96-wells and treated with different concentrations of STK405759. For patient samples, bone marrow aspirates from MM patients were collected, mononuclear cells were separated by Ficoll density gradient centrifugation and myeloma cells selected using CD138 microbeads (Miltenyi Biotec). Purified CD138^+ cells from patients were plated at a density of 2×10^4 cells per well and treated for 48 h with different concentrations of STK405759. Peripheral blood samples were processed by Ficoll density gradient centrifugation to isolate peripheral blood mononuclear cells (PBMCs). […] Cell viability was measured using XTT cell proliferation Kit (Biological Industries) according to manufacture instructions. […]

[4] = system: affinity-purified CD138+ cells from bone marrow samples of MM patients; test: Cell viability XTT assay, primary patient MM cells; assay type: cell-based, human; conditions: 2 MM patients, 48 h
Experimental: (§3) MM cell lines were plated at a density of 2×10^4 cells per well in 96-wells and treated with different concentrations of STK405759. For patient samples, bone marrow aspirates from MM patients were collected, mononuclear cells were separated by Ficoll density gradient centrifugation and myeloma cells selected using CD138 microbeads (Miltenyi Biotec). Purified CD138^+ cells from patients were plated at a density of 2×10^4 cells per well and treated for 48 h with different concentrations of STK405759. Peripheral blood samples were processed by Ficoll density gradient centrifugation to isolate peripheral blood mononuclear cells (PBMCs). PBMCs were plated at 2×10^4 cells per well and exposed to different concentrations of STK405759 for 48 h. Cell viability was measured using XTT cell proliferation Kit (Biological Industries) according to manufacture instructions.

[5] = system: peripheral blood mononuclear cells (PBMCs); test: Cell viability XTT assay, PBMCs; assay type: cell-based, human; conditions: PBMC from the same patients and from healthy donors, 48 h
Experimental: as §3

[6] = system: HS-5 bone marrow stromal cells; test: CFSE/PI FACS viability in co-culture, stromal cells; assay type: cell-based, human; conditions: 48 h
Experimental: FIGS. 2A-D are graphs showing that STK405759 overcomes the growth stimulatory effect of BMSCs. IL-6 or IGF-1 on MM cell growth. FIG. 2A-B—RPMIS cells were stained with CFSE, co-cultured with HS-5 and exposed to STK405759 (70 nM) for 48 h. The cells were contrastained with PI to distinguish live from nonviable cells using FACS analysis. The values of the fraction of nonviable (CFSE^−PI^+) HS-5 cells within the entire population of HS-5 cells (CFSE^−) cultured alone or with RPMIS cells, and the fraction of (CFSE^+PI^+) RPMIS cells within the entire population of RPMIS cells (CFSE) cultured alone or with HS-5 cells are presented as a function of the STK405759 concentrations. FIGS. 2C-D—RPMIS cells were cultured for 48 hours at the indicated concentrations of STK405759 in the presence or absence of IL-6 (5 or 10 ng/ml) or IGF-1 (10 or 30 ng/ml). Data presented are from three independent experiments and presented as means±SE.
Since BMSC trigger and maintain MM cell homing, proliferation, and drug resistance, the present inventors have assessed whether MM cell sensitivity to STK405759 is attenuated by co-culture with bone marrow stromal cells. In order to quantify viability of MM cells cultured alone or co-cultured with HS-5 bone marrow stromal cells. MM cells were stained with CFSE. […]

[7] = system: RPMIS MM cells; test: Xenograft murine model; assay type: in vivo, SCID mice; conditions: 0.5 mg/kg i.p.; not reached after follow-up of 60 days; control 28 days
Experimental: RPMIS cells (7×10^6 mouse in 100 μl of PBS) were injected subcutaneously in SCID mice. Mice (n=10 per group) received STK405759 (0.5 mg/kg in 0.1 ml PBS) or control vehicle (0.1 ml PBS), by intraperitoneal (i.p.) administration once a day for 5 days. FIG. 6A—Tumor diameters were measured every 2-3 days with caliper, and tumor volumes were calculated using the formula of the volume of an ellipse: ½ (length×width^2). […] FIG. 6B—Kaplan-Meier analysis of overall survival confirmed that STK405759 increased survival compared with control mice. […] FIG. 6D—Induction of apoptosis and cell death in tumors excised from vehicle or STK405759 (0.5 mg/kg) treated animals are shown by TUNEL assay. Photomicrographs show apoptotic cells (brown) using light microscopy (×20 and ×40 magnification).
Male SCID mice (6-8 week old) were maintained in accordance with Institutional Animal Care Use Committee guidelines. […]
Mice were monitored every 2-3 d for changes in body weight and tumor burden. Tumor volumes were measured by a caliper every alternate day and calculated using the following formula: length×width^2×0.5. […] Following sacrifice, tumors were immediately collected and evaluated for induction of apoptosis and cell death by TdT-mediated dUTP nick end labeling (TUNEL) assay.

[8] = Xenograft murine model, body weight and toxicity; assay type: in vivo; conditions: 0.5 mg/kg i.p., during treatment
Experimental: Mice were monitored every 2-3 d for changes in body weight and tumor burden. Tumor volumes were measured by a caliper every alternate day and calculated using the following formula: length×width^2×0.5. Mice were sacrificed in accordance with institutional guidelines when tumors reached 1.5 cm^3 or if the mice appeared moribund, to prevent unnecessary morbidity to the mice. Following sacrifice, tumors were immediately collected and evaluated for induction of apoptosis and cell death by TdT-mediated dUTP nick end labeling (TUNEL) assay.

SMILES: Nc1cccc2c1CN(C1CCC(=O)NC1=O)C2=O (stereo not shown) [LEN, lenalidomide]
- Combination Index ([1]; STK405759 45 nM + LEN 5 μM): 0.62 ± 0.09
- Combination Index ([1]; STK405759 45 nM + LEN 25 μM): 0.58 ± 0.09
- Combination Index ([2]; STK405759 45 nM + LEN 5 μM): 0.77 ± 0.09
- Combination Index ([2]; STK405759 45 nM + LEN 25 μM): 0.74 ± 0.05

SMILES: COc1cccc2c1C(=O)c1c(O)c3c(c(O)c1C2=O)C[C@@](O)(C(=O)CO)C[C@@H]3O[C@H]1C[C@H](N)[C@H](O)[C@H](C)O1 [DOXO, doxorubicin]
- Combination Index ([1]; STK405759 45 nM + DOXO 10 nM): 1.30 ± 0.06
- Combination Index ([1]; STK405759 45 nM + DOXO 30 nM): 1.54 ± 0.08
- Combination Index ([2]; STK405759 45 nM + DOXO 10 nM): 1.44 ± 0.01
- Combination Index ([2]; STK405759 45 nM + DOXO 30 nM): 1.63 ± 0.10

SMILES: CC(C)C[C@H](NC(=O)[C@H](Cc1ccccc1)NC(=O)c1cnccn1)B(O)O [BTZ, bortezomib]
- Combination Index ([1]; STK405759 45 nM + BTZ 1 nM): 0.62 ± 0.14
- Combination Index ([1]; STK405759 45 nM + BTZ 5 nM): 0.58 ± 0.02
- Combination Index ([2]; STK405759 45 nM + BTZ 1 nM): 0.88 ± 0.02
- Combination Index ([2]; STK405759 45 nM + BTZ 5 nM): 0.78 ± 0.08

SMILES: CCCCCOC(=O)c1[nH]c2c(c1C)C(=O)CC(c1ccco1)C2 (stereo not shown) [STK405759]
- IC50 [3]: < 44 nM
- cytotoxic response of primary MM cells [4]: dose-dependent cytotoxic response
- cytotoxic effect on PBMC [5]: non responsive to the cytotoxic effect
- viability of HS-5 stromal cells [6]: unaffected
- median overall survival [7]: > 60 days
- changes in weight or other signs of potential toxicity [8]: No significant changes

SMILES: C[C@@H]1C[C@H]2[C@@H]3CCC4=CC(=O)C=C[C@]4(C)[C@@]3(F)[C@@H](O)C[C@]2(C)[C@@]1(O)C(=O)CO [DEX, dexamethasone]
- Combination Index ([1]; STK405759 45 nM + DEX 1 nM): 0.76 ± 0.15
- Combination Index ([1]; STK405759 45 nM + DEX 5 nM): 0.63 ± 0.09
- Combination Index ([2]; STK405759 45 nM + DEX 1 nM): 0.76 ± 0.06
- Combination Index ([2]; STK405759 45 nM + DEX 5 nM): 0.84 ± 0.03
